Measured values published in PubChem BioAssay AID1259407 (Chemical Carcinogenesis Research Information System (CCRIS), 2018).
The source made the active and inactive calls. No rule for the calls is given here.

Tested on: CCRIS mutagenicity, Ames/micronucleus/aberration tests
Assay: CCRIS mutagenicity studies
[1] = Test System: AMES SALMONELLA TYPHIMURIUM, Strain/Indicator: TA98, Metabolic Activation: NONE, Method: STANDARD PLATE
[2] = Test System: AMES SALMONELLA TYPHIMURIUM, Strain/Indicator: TA98, Metabolic Activation: RAT, LIVER, S-9, AROCLOR 1254, Method: STANDARD PLATE
[3] = Test System: AMES SALMONELLA TYPHIMURIUM, Strain/Indicator: TA100, Metabolic Activation: NONE, Method: STANDARD PLATE
[4] = Test System: AMES SALMONELLA TYPHIMURIUM, Strain/Indicator: TA100, Metabolic Activation: RAT, LIVER, S-9, AROCLOR 1254, Method: STANDARD PLATE
[5] = Test System: AMES SALMONELLA TYPHIMURIUM, Strain/Indicator: TA1537, Metabolic Activation: NONE, Method: STANDARD PLATE
[6] = Test System: AMES SALMONELLA TYPHIMURIUM, Strain/Indicator: TA1537, Metabolic Activation: RAT, LIVER, S-9, AROCLOR 1254, Method: STANDARD PLATE
[7] = Test System: AMES SALMONELLA TYPHIMURIUM, Strain/Indicator: TA98, Metabolic Activation: RAT, LIVER, S-9, AROCLOR 1254, Method: PREINCUBATION
[8] = Test System: AMES SALMONELLA TYPHIMURIUM, Strain/Indicator: TA98, Metabolic Activation: NONE, Method: PREINCUBATION
[9] = Test System: AMES SALMONELLA TYPHIMURIUM, Strain/Indicator: TA100, Metabolic Activation: NONE, Method: PREINCUBATION
[10] = Test System: AMES SALMONELLA TYPHIMURIUM, Strain/Indicator: TA1535, Metabolic Activation: NONE, Method: PREINCUBATION
[11] = Test System: AMES SALMONELLA TYPHIMURIUM, Strain/Indicator: TA1537, Metabolic Activation: NONE, Method: PREINCUBATION

O=[N+]([O-])C1=Cc2c3c1cccc3cc1ccc3ccccc3c21
mutagenic call [1]: active; positive
mutagenic call [2]: active; positive
mutagenic call [3]: inactive; negative
mutagenic call [4]: inactive; negative
mutagenic call (Test System: AMES SALMONELLA TYPHIMURIUM, Strain/Indicator: TA1535, Metabolic Activation: NONE, Method: STANDARD PLATE): inactive; negative
mutagenic call (Test System: AMES SALMONELLA TYPHIMURIUM, Strain/Indicator: TA1535, Metabolic Activation: RAT, LIVER, S-9, AROCLOR 1254, Method: STANDARD PLATE): inactive; negative
mutagenic call [5]: active; positive
mutagenic call [6]: inactive; negative
mutagenic call (Test System: AMES SALMONELLA TYPHIMURIUM, Strain/Indicator: TA1538, Metabolic Activation: NONE, Method: STANDARD PLATE): active; positive
mutagenic call (Test System: AMES SALMONELLA TYPHIMURIUM, Strain/Indicator: TA1538, Metabolic Activation: RAT, LIVER, S-9, AROCLOR 1254, Method: STANDARD PLATE): active; positive

CC(N)C(=O)O (stereo not drawn)
mutagenic call (Test System: AMES SALMONELLA TYPHIMURIUM, Strain/Indicator: TA98, Metabolic Activation: RAT LIVER, S-9, CHLOROPHENE, Method: STANDARD PLATE (COMPOUND HEATED AT 250 DEGREES CELSIUS FOR 20 MIN)): inactive; negative

CC\C=C/C=C\C=C/C=C\C=C/OCC(O)CO (stereo not drawn)
mutagenic call [1]: active; positive
mutagenic call [3]: active; positive
mutagenic call (Test System: AMES SALMONELLA TYPHIMURIUM, Strain/Indicator: TA104, Metabolic Activation: NONE, Method: STANDARD PLATE): active; positive

Cc1ccccc1NO
mutagenic call [1]: inactive; negative
mutagenic call [7]: inactive; negative
mutagenic call [2]: inactive; negative
mutagenic call [3]: inactive; negative
mutagenic call [4]: active; positive
mutagenic call (Test System: AMES SALMONELLA TYPHIMURIUM, Strain/Indicator: TA100, Metabolic Activation: RAT, LIVER, S-9, PCB, Method: PREINCUBATION): active; positive

CCOC(=O)CC(C)C
mutagenic call (Test System: AMES SALMONELLA TYPHIMURIUM, Strain/Indicator: TA97, Metabolic Activation: NONE, Method: PREINCUBATION): inactive; negative
mutagenic call (Test System: AMES SALMONELLA TYPHIMURIUM, Strain/Indicator: TA97, Metabolic Activation: RAT, LIVER, S-9, AROCLOR 1254, Method: PREINCUBATION): inactive; negative
mutagenic call (Test System: AMES SALMONELLA TYPHIMURIUM, Strain/Indicator: TA102, Metabolic Activation: NONE, Method: PREINCUBATION): inactive; negative
mutagenic call (Test System: AMES SALMONELLA TYPHIMURIUM, Strain/Indicator: TA102, Metabolic Activation: RAT, LIVER, S-9, AROCLOR 1254, Method: PREINCUBATION): inactive; negative

C1CCC(C2(C3CCCCC3)COCCOCCOCCOCCOCCOCCO2)CC1
mutagenic call [1]: inactive; negative
mutagenic call [2]: inactive; negative
mutagenic call [3]: inactive; negative
mutagenic call [4]: inactive; negative
mutagenic call (Test System: AMES SALMONELLA TYPHIMURIUM, Strain/Indicator: TA1530, Metabolic Activation: NONE, Method: STANDARD PLATE): inactive; negative
mutagenic call (Test System: AMES SALMONELLA TYPHIMURIUM, Strain/Indicator: TA1530, Metabolic Activation: RAT, LIVER, S-9, AROCLOR 1254, Method: STANDARD PLATE): inactive; negative
mutagenic call [5]: inactive; negative
mutagenic call [6]: inactive; negative

ClC(Cl)=C(Cl)c1cccc(Cl)c1Cl
mutagenic call [1]: inactive; negative
mutagenic call [2]: inactive; negative
mutagenic call [3]: inactive; negative
mutagenic call [4]: inactive; negative

C[C@H]1SC[C@@H](C(=O)N[C@@H](Cc2cnc[nH]2)C(=O)N2CCC[C@H]2C(N)=O)NC1=O
mutagenic call [8]: inactive; negative
mutagenic call [7]: inactive; negative
mutagenic call [9]: inactive; negative
mutagenic call (Test System: AMES SALMONELLA TYPHIMURIUM, Strain/Indicator: TA100, Metabolic Activation: RAT, LIVER, S-9, AROCLOR 1254, Method: PREINCUBATION): inactive; negative
mutagenic call [10]: inactive; negative
mutagenic call (Test System: AMES SALMONELLA TYPHIMURIUM, Strain/Indicator: TA1535, Metabolic Activation: RAT, LIVER, S-9, AROCLOR 1254, Method: PREINCUBATION): inactive; negative
mutagenic call [11]: inactive; negative
mutagenic call (Test System: AMES SALMONELLA TYPHIMURIUM, Strain/Indicator: TA1537, Metabolic Activation: RAT, LIVER, S-9, AROCLOR 1254, Method: PREINCUBATION): inactive; negative
mutagenic call (Test System: E. COLI, Strain/Indicator: WP2 UVRA, Metabolic Activation: NONE, Method: PREINCUBATION): inactive; negative
mutagenic call (Test System: E. COLI, Strain/Indicator: WP2 UVRA, Metabolic Activation: RAT, LIVER, S-9, AROCLOR 1254, Method: PREINCUBATION): inactive; negative

Cc1c2ccccc2cc2c3c(ccc12)[C@@H](O)[C@H](O)C=C3
mutagenic call (Test System: CHINESE HAMSTER V-79, Strain/Indicator: V-79/8-AZAGUANINE, Metabolic Activation: NONE, Method: STANDARD PLATE): active; positive

O=S1(=O)c2cccc3ccc4c5ccccc5cc1c4c23
mutagenic call [1]: active; positive
mutagenic call (Test System: AMES SALMONELLA TYPHIMURIUM, Strain/Indicator: TA98, Metabolic Activation: RAT, LIVER, S-9, AROCLOR 1254 (10%), Method: STANDARD PLATE): active; positive
mutagenic call [3]: active; positive
mutagenic call (Test System: AMES SALMONELLA TYPHIMURIUM, Strain/Indicator: TA100, Metabolic Activation: RAT, LIVER, S-9, AROCLOR 1254 (10%), Method: STANDARD PLATE): active; positive

COC1=CC(=O)C(=O)C(C(C)(C)C)=C1
mutagenic call [1]: inactive; negative
mutagenic call [2]: inactive; negative
mutagenic call [3]: inactive; negative
mutagenic call [4]: inactive; negative

O=S(=O)(O)OCc1ccc2ccc3cccc4ccc1c2c34
mutagenic call [8]: active; positive

C=CC(=O)OCC(Br)CBr (stereo not drawn)
mutagenic call (Test System: AMES SALMONELLA TYPHIMURIUM, Strain/Indicator: TA98, Metabolic Activation: HAMSTER, LIVER, S-9, AROCLOR 1254 (10%), Method: PREINCUBATION): active; positive
mutagenic call [8]: inactive; negative
mutagenic call (Test System: AMES SALMONELLA TYPHIMURIUM, Strain/Indicator: TA98, Metabolic Activation: RAT, LIVER, S-9, AROCLOR 1254 (10%), Method: PREINCUBATION): inactive; negative
mutagenic call (Test System: AMES SALMONELLA TYPHIMURIUM, Strain/Indicator: TA100, Metabolic Activation: HAMSTER, LIVER, S-9, AROCLOR 1254 (10%), Method: PREINCUBATION): active; positive
mutagenic call [9]: inactive; negative
mutagenic call (Test System: AMES SALMONELLA TYPHIMURIUM, Strain/Indicator: TA100, Metabolic Activation: RAT, LIVER, S-9, AROCLOR 1254 (10%), Method: PREINCUBATION): active; positive
mutagenic call (Test System: AMES SALMONELLA TYPHIMURIUM, Strain/Indicator: TA1535, Metabolic Activation: HAMSTER, LIVER, S-9, AROCLOR 1254 (10%), Method: PREINCUBATION): active; positive
mutagenic call [10]: active; positive
mutagenic call (Test System: AMES SALMONELLA TYPHIMURIUM, Strain/Indicator: TA1535, Metabolic Activation: RAT, LIVER, S-9, AROCLOR 1254 (10%), Method: PREINCUBATION): active; positive
mutagenic call (Test System: AMES SALMONELLA TYPHIMURIUM, Strain/Indicator: TA1537, Metabolic Activation: HAMSTER, LIVER, S-9, AROCLOR 1254 (10%), Method: PREINCUBATION): inactive; negative
mutagenic call [11]: inactive; negative
mutagenic call (Test System: AMES SALMONELLA TYPHIMURIUM, Strain/Indicator: TA1537, Metabolic Activation: RAT, LIVER, S-9, AROCLOR 1254 (10%), Method: PREINCUBATION): inactive; negative

O=[N+]([O-])c1ccc2[nH]c3c([N+](=O)[O-])cccc3c2c1
mutagenic call (Test System: AMES SALMONELLA TYPHIMURIUM, Strain/Indicator: TA98(NR), Metabolic Activation: NONE, Method: STANDARD PLATE): active; positive
mutagenic call (Test System: AMES SALMONELLA TYPHIMURIUM, Strain/Indicator: TA98(NR), Metabolic Activation: RAT, LIVER, S-9, AROCLOR 1254, Method: STANDARD PLATE): active; positive
mutagenic call [1]: active; positive
mutagenic call [2]: active; positive

ClCC1(CCl)[C@H]2CC(Cl)(Cl)[C@]1(CCl)[C@@H](Cl)[C@@H]2Cl
mutagenic call [9]: inactive; negative
